The values that follow are results of earlier work, collected in US20030203881A1, “Method of treating neurologic disorders” (priority 2000, published 2003).

Data set [1] concerns osteoarthritis in dog models. As to conditions: prophylactic administration.
A further data set concerns inflammatory cells. As to conditions: EAE.
The subject of a further data set is neurons. As to conditions: tissue culture.
Data set [2] relates to patients with mild and moderate arthritis.
The subject of another data set is microglial response. As to conditions: experimental model of stroke, around stroke lesions.

The structures appear in SMILES notation.

Regarding `C[C@H]1c2cccc(O)c2C(=O)C2=C(O)[C@]3(O)C(=O)C(C(N)=O)=C(O)[C@@H](N(C)C)[C@@H]3[C@@H](O)[C@@H]21` [doxycycline], the severity of osteoarthritis result in data set [1] was “markedly reduced the severity of osteoarthritis”.
Regarding `CN(C)c1ccc(O)c2c1C[C@H]1C[C@H]3[C@H](N(C)C)C(=O)C(C(N)=O)=C(O)[C@@]3(O)C(=O)C1=C2O` [minocycline], the “invasion of inflammatory cells into the CNS” value in the data set with inflammatory cells was “prevents the invasion of inflammatory cells into the CNS”. Besides, the “protection of neurons against death” value in the data set on neurons is reported as “protects neurons against death”. Moreover, in data set [2], the “efficacy in patients with arthritis” value is “effective” and the “safety in patients with arthritis” value was “safe”. Moreover, the “microglial response in the area surrounding areas of brain ischemia” value with microglial response is on record as “reduced the microglial response”.
